According to article PMC6804443 (Acta Pharmaceutica Sinica. B, 2019):
Like-named read-outs stand apart in the source and are kept apart here.

Tests used:
[1] = XueBiJing compounds, cited from earlier work; for LogD(7.4): pH 7.4
[2] = cited from earlier work; for fu-p (unbound fraction in plasma): human plasma; for Cmax / VSS / t1/2 / Major elimination route / fe-U (fraction of dose excreted unchanged into urine): human; for Cmax / VSS / t1/2: XueBiJing 100 mL via 75-min intravenous infusion
[3] = type: in vivo; conditions: human; XueBiJing at label dose 100 mL
[4] = test system: P450 enzymes, UGTs, SULTs, OATP1B1/1B3, OAT1/3, OCT2, MATE1/2-K, MDR1, BCRP; conditions: cited from earlier work
[5] = XueBiJing compounds; cited from earlier work
UGT2B15 = target: T1, UGT2B15 (Homo sapiens, UniProt P54855); type: in vitro ADME; conditions: for inhibition at 1000 μmol/L: human, cDNA-expressed UGT2B15
T1 sequence (P54855 24-530): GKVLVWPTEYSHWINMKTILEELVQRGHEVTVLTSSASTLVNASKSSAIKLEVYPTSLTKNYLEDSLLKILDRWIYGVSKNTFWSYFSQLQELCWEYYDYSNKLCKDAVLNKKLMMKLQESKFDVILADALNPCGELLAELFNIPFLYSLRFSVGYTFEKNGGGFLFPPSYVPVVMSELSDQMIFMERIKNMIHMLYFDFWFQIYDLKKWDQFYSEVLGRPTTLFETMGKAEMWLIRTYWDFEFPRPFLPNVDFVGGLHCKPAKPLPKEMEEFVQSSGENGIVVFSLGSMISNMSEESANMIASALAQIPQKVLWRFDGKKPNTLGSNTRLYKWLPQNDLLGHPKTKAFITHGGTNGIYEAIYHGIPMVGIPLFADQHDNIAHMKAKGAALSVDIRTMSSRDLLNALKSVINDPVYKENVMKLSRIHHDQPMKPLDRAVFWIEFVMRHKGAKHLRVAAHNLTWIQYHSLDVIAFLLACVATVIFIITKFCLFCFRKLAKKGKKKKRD

OAT2 [6] = target: T2, OAT2 (Homo sapiens, UniProt Q9Y694); test: OAT2 inhibition by antibiotics, transfected HEK293 cells, tanshinol as substrate; type: in vitro ADME; conditions: for inhibition at 1000 µM: HEK293, read-out: Inhibition of OAT2
T2 sequence (Q9Y694 1-546 isoform Q9Y694-2): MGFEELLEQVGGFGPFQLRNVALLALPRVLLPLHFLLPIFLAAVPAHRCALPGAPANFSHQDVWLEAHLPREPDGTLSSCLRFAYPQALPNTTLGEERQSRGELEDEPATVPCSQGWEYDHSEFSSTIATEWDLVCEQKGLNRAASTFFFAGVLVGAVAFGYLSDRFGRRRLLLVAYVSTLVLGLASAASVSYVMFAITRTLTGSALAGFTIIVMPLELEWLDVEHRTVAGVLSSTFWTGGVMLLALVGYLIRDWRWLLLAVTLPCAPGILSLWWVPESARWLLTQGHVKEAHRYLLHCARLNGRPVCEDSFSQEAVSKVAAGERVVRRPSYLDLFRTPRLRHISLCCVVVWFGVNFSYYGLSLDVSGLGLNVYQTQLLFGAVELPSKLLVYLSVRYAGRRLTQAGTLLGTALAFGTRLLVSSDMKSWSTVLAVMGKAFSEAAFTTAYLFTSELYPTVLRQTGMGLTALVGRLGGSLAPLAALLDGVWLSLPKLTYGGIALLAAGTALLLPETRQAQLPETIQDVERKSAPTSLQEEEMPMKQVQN

OATP1B3 [7] = target: T3, OATP1B3 (Homo sapiens, UniProt Q9NPD5); conditions: IC50, OATP1B3 [X10], mean ± SD (n = 3)
T3 sequence (Q9NPD5 1-702): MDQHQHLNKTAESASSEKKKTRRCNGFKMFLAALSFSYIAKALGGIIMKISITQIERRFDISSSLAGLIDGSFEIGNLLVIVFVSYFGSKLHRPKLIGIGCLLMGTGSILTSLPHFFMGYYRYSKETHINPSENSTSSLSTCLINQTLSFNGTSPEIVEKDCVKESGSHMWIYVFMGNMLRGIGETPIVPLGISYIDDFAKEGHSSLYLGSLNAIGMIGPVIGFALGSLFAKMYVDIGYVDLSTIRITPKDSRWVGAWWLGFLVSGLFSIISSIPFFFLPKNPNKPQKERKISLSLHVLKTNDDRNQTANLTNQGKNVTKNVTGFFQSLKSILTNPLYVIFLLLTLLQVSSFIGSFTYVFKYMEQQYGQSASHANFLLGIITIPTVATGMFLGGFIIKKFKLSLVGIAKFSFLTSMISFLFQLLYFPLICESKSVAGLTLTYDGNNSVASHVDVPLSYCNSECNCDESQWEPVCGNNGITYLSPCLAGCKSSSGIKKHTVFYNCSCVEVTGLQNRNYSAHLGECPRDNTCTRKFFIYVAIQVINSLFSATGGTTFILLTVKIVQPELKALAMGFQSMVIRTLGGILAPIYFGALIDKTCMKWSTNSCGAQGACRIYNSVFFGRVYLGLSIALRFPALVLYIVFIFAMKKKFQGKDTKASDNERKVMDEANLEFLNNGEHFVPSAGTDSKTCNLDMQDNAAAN

OATP1B3 [8] = target: T3, OATP1B3; test: in vitro
ALDH = type: in vitro ADME; conditions: human, pooled human liver cytosol
OAT1 [9] = target: T4, OAT1 (Homo sapiens, UniProt Q4U2R8); test: OAT1 inhibition by antibiotics, transfected HEK293 cells, tanshinol as substrate; conditions: for Inhibition DDI index, OAT1: antibiotic as perpetrator, tanshinol (X8) as victim, (Cmax × fu-p × R)/IC50; for inhibition at 1000 μmol/L: human
T4 sequence (Q4U2R8 1-563): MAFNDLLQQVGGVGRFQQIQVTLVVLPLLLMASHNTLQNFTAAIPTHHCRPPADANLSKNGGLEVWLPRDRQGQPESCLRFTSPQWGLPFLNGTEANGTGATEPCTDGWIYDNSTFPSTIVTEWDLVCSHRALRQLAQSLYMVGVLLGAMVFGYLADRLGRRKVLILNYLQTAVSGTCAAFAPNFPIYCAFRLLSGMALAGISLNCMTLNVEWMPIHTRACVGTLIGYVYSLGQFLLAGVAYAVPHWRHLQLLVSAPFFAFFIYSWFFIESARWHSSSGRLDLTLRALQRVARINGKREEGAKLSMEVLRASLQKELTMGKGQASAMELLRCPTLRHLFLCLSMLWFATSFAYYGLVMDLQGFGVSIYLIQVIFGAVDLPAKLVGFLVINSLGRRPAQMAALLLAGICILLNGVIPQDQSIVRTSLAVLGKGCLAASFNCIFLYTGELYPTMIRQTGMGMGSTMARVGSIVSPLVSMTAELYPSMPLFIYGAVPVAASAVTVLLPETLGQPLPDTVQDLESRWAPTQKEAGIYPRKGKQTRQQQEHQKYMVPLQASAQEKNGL

OATP1B3 [10] = target: T3, OATP1B3; conditions: for Inhibition DDI index, OATP1B3: antibiotic as perpetrator, salvianolic acid B (X10) as victim, (Cmax × fu-p × R)/IC50
OAT3 = target: T5, OAT3 (Homo sapiens, UniProt Q8TCC7); test: Reported in vitro interaction with OAT3; type: in vitro ADME; conditions: estimated from reported Cmax, fu-p and literature potency
T5 sequence (Q8TCC7 1-542): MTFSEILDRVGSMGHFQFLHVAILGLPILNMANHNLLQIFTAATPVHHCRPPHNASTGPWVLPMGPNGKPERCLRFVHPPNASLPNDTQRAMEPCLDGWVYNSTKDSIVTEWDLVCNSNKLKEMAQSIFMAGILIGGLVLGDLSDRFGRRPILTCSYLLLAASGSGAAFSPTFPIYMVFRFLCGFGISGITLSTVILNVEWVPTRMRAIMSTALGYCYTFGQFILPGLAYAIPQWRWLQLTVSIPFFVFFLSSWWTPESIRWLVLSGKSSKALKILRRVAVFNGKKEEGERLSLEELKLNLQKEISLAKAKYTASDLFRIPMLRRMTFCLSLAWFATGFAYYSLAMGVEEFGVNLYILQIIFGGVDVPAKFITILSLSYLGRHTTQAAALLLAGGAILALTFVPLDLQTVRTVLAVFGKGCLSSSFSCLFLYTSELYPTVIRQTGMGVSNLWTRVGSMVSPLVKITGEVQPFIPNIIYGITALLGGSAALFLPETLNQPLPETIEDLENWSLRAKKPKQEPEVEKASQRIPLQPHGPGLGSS

OAT1 [11] = target: T4, OAT1; test: OAT1 inhibition by XueBiJing compounds, transfected HEK293 cells [PAH]; type: in vitro ADME
OAT2 [12] = target: T2, OAT2; type: in vitro ADME
CYP2B6 = CYP2B6 induction by XueBiJing compounds in cryopreserved human hepatocytes; type: in vitro ADME; conditions: higher concentrations; range over the named compounds and enzymes
CYP3A4 = conditions: higher concentrations; range over the named compounds and enzymes

Compound	pKa [1]	LogD(7.4) [1]	fu-p (unbound fraction in plasma) [2] [%]	Cmax [2] [µM]	VSS [2] [L/kg]	t1/2 [2] [h]	Major elimination route [2]	Related metabolism and transport data (substrate status) [4]	Membrane permeability [5]	IC50 (OATP1B3 [7]) [µM]	inhibition at 1000 μmol/L (OATP1B3 [8]) [%]	IC50 (OAT1 [9]) [µM]	Inhibition DDI index, OAT1 (OAT1 [9])	inhibition at 1000 μmol/L (OAT1 [9]) [%]	Inhibition DDI index, OATP1B3 (OATP1B3 [10])	also measured
C[C@@]12C[C@@]3(O)O[C@@H](O1)[C@]1(COC(=O)c4ccccc4)[C@H]3C[C@@]12O[C@@H]1O[C@H](CO)[C@@H](O)[C@H](O)[C@H]1O [X2, paeoniflorin]	11.5	0.1	82	18.2	0.19	1.1	Renal excretion, GF-based	Not the substrate of P450 enzymes, UGTs, SULTs, OATP1B1/1B3, OAT1/3, OCT2, MATE1/2-K, MDR1, or BCRP	Poor							fe-U (fraction of dose excreted unchanged into urine) [2]: 63%; Unbound Cmax [3]: 15 µM
Cc1onc(-c2c(F)cccc2Cl)c1C(=O)N[C@@H]1C(=O)N2[C@@H]1SC(C)(C)[C@@H]2C(=O)O [A19, flucloxacillin]										26 ± 9	> 90	173 ± 27	0.16	≥ 90	1.07	IC50 (UGT2B15): 336 ± 83 µM; inhibition at 1000 μmol/L (UGT2B15): 60 to 88%; IC50 (OAT2 [6]): 729 ± 131 µM; inhibition at 1000 µM (OAT2 [6]): 60 to 84%; IC50 (ALDH): 45 ± 6 µM; inhibition at 1000 μmol/L (ALDH): 56 to 88%
CC(=O)NC[C@H]1CN(c2ccc(N3CCOCC3)c(F)c2)C(=O)O1 [A29, linezolid]																DDI index, inhibiting OAT3 (OAT3): ≥ 1.0
Cn1nnnc1SCC1=C(C(=O)O)N2C(=O)[C@@H](NC(=O)[C@H](O)c3ccccc3)[C@H]2SC1 [A11, cefamandole]										53 ± 20	> 90				1.70	DDI index, inhibiting OAT3 (OAT3): ≥ 1.0
CCCCC1(O)OC(=O)C2=C1CCC=C2 (centres unmarked) [X7, senkyunolide G]	10.7	1.5	3	0.5	0.10	2.3	Hepatic glucuronidation	Poor UGT substrate	Good							Inhibition of OAT1 (OAT1 [11]; 100 μmol/L): > 50%; IC50 (OAT1 [11]; read-out: IC50, OAT1 [PAH], mean ± SD (n = 3)): 11 ± 3 µM; Inhibition of OAT2 (OAT2 [12]; 100 μmol/L): > 50%; IC50 (OAT2 [12]; read-out: IC50, OAT2 [prostaglandin F2α], mean ± SD (n = 3)): 51 ± 5 µM; mRNA-T/U ratio, CYP2B6 (CYP2B6): 4.0 to 9.6; mRNA-T/U ratio, CYP3A4 (CYP3A4): 4.0 to 9.6
teicoplanin [A26]															0.60	IC50 (OAT2 [6]; read-out: IC50, OAT2 [X8], mean ± SD (n = 3)): 64 ± 14 µM; IC50 (OATP1B3 [10]; read-out: IC50, OATP1B3 [X10], mean ± SD (n = 3)): 8 ± 2 µM; Inhibition of OATP1B3 (OATP1B3 [10]; test concentration 100 μmol/L): > 90%
C[C@@H](c1ncncc1F)[C@](O)(Cn1cncn1)c1ccc(F)cc1F [A45, voriconazole]										19 ± 8	64 to 88	189 ± 75	0.22	63 to 88	2.16	IC50 (UGT2B15): 55 ± 6 µM; Inhibition DDI index, UGT2B15 (UGT2B15; antibiotic as perpetrator, senkyunolide I (X5) as victim, (Cmax × fu-p × R)/IC50): 0.75; inhibition at 1000 μmol/L (UGT2B15): ≥ 90%
Cc1onc(-c2ccccc2)c1C(=O)N[C@@H]1C(=O)N2[C@@H]1SC(C)(C)[C@@H]2C(=O)O [A17, oxacillin]										11 ± 2	> 90	99 ± 31	0.52	63 to 88	4.64	IC50 (OAT2 [6]): 467 ± 97 µM; inhibition at 1000 µM (OAT2 [6]): 60 to 84%; Inhibition DDI index, OAT2 (OAT2 [6]; antibiotic as perpetrator, tanshinol (X8) as victim, (Cmax × fu-p × R)/IC50): 0.11; IC50 (ALDH): 465 ± 72 µM; inhibition at 1000 μmol/L (ALDH): 56 to 88%
C[C@]12C[C@@H](O)[C@@H]3C[C@@]1(O[C@@H]1O[C@H](CO)[C@@H](O)[C@H](O)[C@H]1O)[C@@]3(COC(=O)c1ccccc1)C(=O)O2 [X4, albiflorin]	12.8	−0.9	83	0.8	0.08	0.7	Renal excretion, GF-based	Not the substrate of P450 enzymes, UGTs, SULTs, OATP1B1/1B3, OAT1/3, OCT2, MATE1/2-K, MDR1, or BCRP	Poor							fe-U (fraction of dose excreted unchanged into urine) [2]: 62%
